Reference: US10870625B2, “Zwitterionic propargyl-linked antifolates useful for treating bacterial infections” (THE UNIVERSITY OF CONNECTICUT, priority 2016, dated 2020)
In brackets after ≈: the same amount, converted by molar mass.

Key:
Mtb = assay: M. tuberculosis MIC, microtiter broth dilution (Table 6); format: cell-based, Mycobacterium tuberculosis
Method: (provided by Leonid Heifets).
Each isolate was tested in duplicate.

MtbDHFR = MtbDHFR (Mycobacterium tuberculosis (strain ATCC 25618 / H37Rv), UniProt P9WNX1); conditions: data from Nixon et al., Chem. Biol. (2014); cited from earlier work
S. aureus (Sa) DHFR = S. aureus (Sa) DHFR (Staphylococcus aureus, UniProt P0A017); format: biochemical; conditions: Table 2
E. coli (Ec) DHFR = E. coli (Ec) DHFR (Escherichia coli (strain K12), UniProt P0ABQ4); assay: E. coli DHFR enzyme inhibition (NADPH oxidation, 340 nm); format: biochemical; conditions: Table 2
human (Hu) DHFR = human (Hu) DHFR (Homo sapiens (Human), UniProt P00374); assay: Human DHFR enzyme inhibition (Example 5); format: biochemical; conditions: Table 2
[1] = system: S. aureus ATCC strain 43300; assay: microbe, parasite or virus in culture; format: cell-based, Staphylococcus aureus
E. coli (ATCC 25922) = assay: E. coli MIC, microdilution broth assay; format: cell-based, Escherichia coli; conditions: Table 2; wild-type E. coli
Method: Minimum inhibitory concentrations were determined using E. coli (ATCC 25922) and the microdilution broth assay with an inoculum of […] CFU/mL in Isosensitest Broth (Oxoid).

E. coli NR698 = format: cell-based, Escherichia coli; conditions: Table 2

Compound	MIC (Mtb; Mycobacterium tuberculosis)	IC50 (MtbDHFR)	IC50 (S. aureus (Sa) DHFR)	IC50 (E. coli (Ec) DHFR)	IC50 (human (Hu) DHFR)	MIC S. aureus 43300 [1]	MIC Sa43300 ([1]; Table 12, wild-type strain)	MIC E. coli 25922 (E. coli (ATCC 25922))	MIC E. coli NR698 (E. coli NR698)	MIC Mtb (Mtb)	MIC Sa(H30N) (Sa(H30N) strain)
COc1cc(NCc2ccc3nc(N)nc(N)c3c2C)cc(OC)c1OC [Trimetrexate, trimetrexate, reference compound]	4 µg/mL (≈ 10.8 µM)	17 nM	–	–	–	–	–	–	–	–	–
CCc1nc(N)nc(N)c1C#CC(SC)c1cc(-c2ccc(C(=O)O)cc2)ccc1OC (centres unmarked) [Compound 29]	–	–	37 nM	177 nM	266 nM	0.625 µg/mL (≈ 1.39 µM)	0.0391 µg/mL (≈ 0.0872 µM)	>20 µg/mL	0.0391 µg/mL (≈ 0.0872 µM)	0.5 µg/mL (≈ 1.11 µM)	0.1563 µg/mL (≈ 0.348 µM)
